Source: patent US20250127907A1, “PARP INHIBITORS” (Stablix, Inc., priority 2023, published 2025)
Read-outs that look alike come from different tables or passages of the source.

Tests used:
Type in all cases: cell-based
[1] = system: Poly/Mono-ADP Ribose in U2OS cells; test: PAR in cell western assay (parylation) in U2OS cells; conditions: Homo sapiens, read-out: Parylation (U2OS)
Experimental: U2OS cells are seeded at 2667 cells per well in 24 ul medium into poly-D lysine-coated 384 well plate and incubated in the TC incubator for O/N
The next day, test comps are diluted in a source plate and 6 μL of the diluted comp is added to the cell plate; mixed well and incubated for 6 hrs. DNA damage is induced with 2 mM H2O2 for 10 min. After discarding the medium, cells are fixed in ice cold Methanol at for 20 min at −20C. After a wash step at room temperature, cells are permeabilized with 0.05% NP-40 in PBS for 10 min, followed by wash steps. Cells are blocked with 1% BSA, at room temperature for 1 hr. Cells are stained with anti mono/polyADP ribose antibody (E6F6A, Cell signaling, 1:5000) in 1×PBS/1% BSA/0.05% Tween o/n at 4C.
Next Day, cells are washed and incubated with anti-Rabbit 800CV (Licor antibody, 1:500) and CellTag 700 (Licor, 1:800) in 1×PBS/1% BSA/0.05% Tween for 1 h. After washing, plates are scanned using LICOR and are quantified.
Parylation inhibition is reported as % control inhibition.
(§1) The letter codes for the PARP1-enzyme assay include: A (<1 nM), B (>1-10 nM), C (>10-100 nM), D (>100-1000 nM), E (>1000 nM), and “-” is not tested. The letter codes for the PARP trapping assay, and parylation assay include: A (<10 nM), B (>10-100 nM), C (>100-1000 nM), […], E (>10000 nM), and “-” is not tested.

A2780 cells = test: Cell proliferation assay (A2780); conditions: Homo sapiens, 168 h, 7 days
Experimental: (§2) Cells are counted, diluted to desired density and 40 μL of cell suspension is added into each 384-well tissue-culture treated plates. Plates are incubated in Tissue Culture incubator at 37° C./5% C02 overnight.
(§3) Next day, 40 nl test compounds that are prepared from source plates are transferred to the seeded cells from overnight. Plates are incubated at 37° C./5% C02 for a total of 7 days. After 7-day incubation, plates are equilibrated to room temperature and 30 ul of Cell Counting-Lite is added to each well for a 30 min incubation followed by reading on EnVision.
(§4) The letter codes for the cell proliferation assay in A2780, HCC1806, and MDA-MB-436 cells include: A (<10 nM), B (>10-100 nM), C (>100-1000 nM), D (>1000-10000 nM), E (>10000 nM), and “-” is not tested.

HCC1806 cells = test: Cell proliferation assay (HCC1806); conditions: Homo sapiens, 168 h, 7 days
Experimental: as §2, §3, §4

MDA-MB-436 cells = test: Cell proliferation assay (MDA-MB-436); conditions: Homo sapiens, 168 h, 7 days
Experimental: as §2, §3, §4

PARP1 = PARP1 (Homo sapiens, UniProt P09874); test: PARP trapping assay in U2OS cells; design: endogenous in cells; host or cells: U2OS; conditions: U2OS cells, MMS, 4 hrs; read-out: PARP Trapping (U2OS)
Experimental: U2OS cells are seeded at 15,000 cells/well in 90 ul medium and incubated in the TC incubator for overnight.
Next day, test compounds are prepared in a source plate along with addition of DNA damage reagent MMS simultaneously and 10 ul of the diluted mixture is added to the cell plate and incubated for 4 hrs under T/C conditions.
After 4 hrs, following aspiration and washing, add 100 ul of cold cytoskeleton removal buffer (0.5% Triton X-100) and incubated for 10 min. At the end of incubation, slowly the buffer is removed, and cells are fixed with ice cold MeOH for 15 min at −20C. Followed by wash steps, cells are blocked with 1×PBS/3% BSA/0.05% Tween for 1 h at room temperature.
Cells are stained with anti PARP1 antibody (abeam ab227244, 1:1000), in 1×PBS/1% BSA overnight at 4C.
Wash and add DAPI, scan cells in Celigo.
Data Analysis: DAPI staining is used to segment nuclei and AF488 fluorescence intensity per nucleus is measured.
as §1

Chain of PARP1 (P09874 whole entry): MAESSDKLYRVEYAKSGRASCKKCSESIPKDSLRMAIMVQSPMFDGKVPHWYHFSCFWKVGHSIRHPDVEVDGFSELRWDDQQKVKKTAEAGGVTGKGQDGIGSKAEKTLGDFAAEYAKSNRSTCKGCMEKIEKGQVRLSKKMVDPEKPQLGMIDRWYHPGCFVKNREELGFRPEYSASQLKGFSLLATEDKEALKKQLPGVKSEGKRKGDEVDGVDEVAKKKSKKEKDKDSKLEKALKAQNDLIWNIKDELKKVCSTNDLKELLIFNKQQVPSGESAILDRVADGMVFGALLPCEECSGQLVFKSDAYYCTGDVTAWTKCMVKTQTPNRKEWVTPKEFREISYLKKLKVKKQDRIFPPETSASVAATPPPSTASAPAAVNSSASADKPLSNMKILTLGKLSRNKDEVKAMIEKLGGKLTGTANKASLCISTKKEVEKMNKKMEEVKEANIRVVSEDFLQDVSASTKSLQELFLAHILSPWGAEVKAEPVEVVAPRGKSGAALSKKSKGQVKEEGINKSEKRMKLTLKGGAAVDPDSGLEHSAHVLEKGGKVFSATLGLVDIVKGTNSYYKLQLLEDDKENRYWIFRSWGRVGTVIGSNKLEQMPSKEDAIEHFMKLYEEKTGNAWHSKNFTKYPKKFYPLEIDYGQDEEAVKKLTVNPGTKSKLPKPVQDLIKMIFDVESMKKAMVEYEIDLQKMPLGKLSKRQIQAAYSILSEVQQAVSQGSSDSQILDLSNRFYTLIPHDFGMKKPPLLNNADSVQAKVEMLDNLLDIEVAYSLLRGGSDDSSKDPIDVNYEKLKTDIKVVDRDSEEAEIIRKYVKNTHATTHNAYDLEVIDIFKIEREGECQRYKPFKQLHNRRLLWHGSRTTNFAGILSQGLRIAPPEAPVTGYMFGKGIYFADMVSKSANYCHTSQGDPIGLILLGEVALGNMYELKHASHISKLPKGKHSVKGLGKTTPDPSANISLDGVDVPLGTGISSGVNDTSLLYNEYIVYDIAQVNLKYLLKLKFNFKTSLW

SMILES	IC50 ([1]; U2OS cells, 6 hrs, 2 mM H2O2)	IC50 (A2780 cells)	IC50 (HCC1806 cells)	IC50 (MDA-MB-436 cells)	IC50 (PARP1)	IC50 ([1]; U2OS, 6 h)
CC(C)(C)C(=O)N1CCC[C@@H](c2cccc(C(=O)N[C@@H](C(=O)N3C4CCC3CC(OC3CCN(CC(=O)N5CCN(C(=O)c6cc(Cc7n[nH]c(=O)c8ccccc78)ccc6F)CC5)CC3)C4)C3CCCCC3)c2F)C1 (stereo partly drawn) [Compound I-971]	10 to 100 nM	10 to 100 nM	100 to 1000 nM	< 10 nM	10 to 100 nM	–
O=C(CN1CCN(CC2CCN(C(=O)c3c(F)cc(-c4ccccn4)cc3F)CC2)CC1)N1CCN(C(=O)c2cc(Cc3n[nH]c(=O)c4ccccc34)ccc2F)CC1 [Compound I-769]	< 10 nM	10 to 100 nM	10 to 100 nM	< 10 nM	< 10 nM	–
CC(C)(C)OC(=O)Nc1cc(-c2cccc(C3COC3)c2)cnc1C(=O)NCCOCCNCC(=O)N1CCN(C(=O)c2cc(Cc3n[nH]c(=O)c4ccccc34)ccc2F)CC1 [Compound I-803]	10 to 100 nM	10 to 100 nM	100 to 1000 nM	< 10 nM	100 to 1000 nM	–
CCc1cccc(-c2cnc(C(=O)NCCOCCNCC(=O)N3CCN(C(=O)c4cc(Cc5n[nH]c(=O)c6ccccc56)ccc4F)CC3)c(C)c2)c1 [Compound I-489]	10 to 100 nM	10 to 100 nM	100 to 1000 nM	< 10 nM	100 to 1000 nM	–
CC1(OC(=O)N[C@@H](C(=O)N2CCC(OC3CCN(CC(=O)N4CCN(C(=O)c5cc(Cc6n[nH]c(=O)c7ccccc67)ccc5F)CC4)CC3)CC2)C2CCCCC2)CCC1 [Compound I-749]	10 to 100 nM	10 to 100 nM	10 to 100 nM	< 10 nM	10 to 100 nM	–
O=C(CN1CCC(OC2CCN(C(=O)c3c(F)cc(-c4cccnn4)cc3F)CC2)CC1)N1CCN(C(=O)c2cc(Cc3n[nH]c(=O)c4ccccc34)ccc2F)CC1 [Compound I-771]	< 10 nM	100 to 1000 nM	100 to 1000 nM	< 10 nM	10 to 100 nM	–
CC1(OC2CCN(CC(=O)N3CCN(C(=O)c4cc(Cc5n[nH]c(=O)c6ccccc56)ccc4F)CC3)CC2)CCN(C(=O)[C@H](NC(=O)c2cccc(C3CCCN(C(=O)C45CC(C4)C5)C3)c2F)C2CCCCC2)CC1 (stereo partly drawn) [Compound I-892]	100 to 1000 nM	100 to 1000 nM	100 to 1000 nM	10 to 100 nM	10 to 100 nM	–
O=C(CN1CCC(OC2CCN(C(=O)c3c(F)cc(-c4ccnnc4)cc3F)CC2)CC1)N1CCN(C(=O)c2cc(Cc3n[nH]c(=O)c4ccccc34)ccc2F)CC1 [Compound I-772]	10 to 100 nM	100 to 1000 nM	100 to 1000 nM	< 10 nM	< 10 nM	–
CC(C)(C)OC(=O)N[C@@H](C(=O)N1CC[C@H](OC2CCN(CC(=O)N3CCN(C(=O)c4cc(Cc5n[nH]c(=O)c6ccccc56)ccc4F)CC3)CC2)C1)C1CCCCC1 [Compound I-875]	100 to 1000 nM	100 to 1000 nM	100 to 1000 nM	< 10 nM	100 to 1000 nM	–
CC(C)(C)C(=O)N1CCC[C@H](c2cccc(C(=O)N[C@@H](C(=O)N3CCC(OC4CCN(CC(=O)N5CCN(C(=O)c6cc(Cc7n[nH]c(=O)c8ccccc78)ccc6F)CC5)CC4)CC3)C3CCCCC3)c2F)C1 [Compound I-910]	100 to 1000 nM	10 to 100 nM	10 to 100 nM	< 10 nM	–	–
CCc1cccc(-c2cc(F)c(C(=O)N3CC4CCC3CC4CN3CCN(CC(=O)N4CCN(C(=O)c5cc(Cc6n[nH]c(=O)c7ccccc67)ccc5F)CC4)CC3)c(F)c2)c1 (stereo not drawn) [Compound I-690]	10 to 100 nM	100 to 1000 nM	10 to 100 nM	< 10 nM	10 to 100 nM	–
CCc1cccc(-c2cc(F)c(C(=O)N3CCC(OC4CCN(CC(=O)N5CCN(C(=O)c6cc(Cc7n[nH]c(=O)c8ccccc78)ccc6F)CC5)CC4)CC3)c(F)c2)c1 [Compound I-590]	< 10 nM	< 10 nM	10 to 100 nM	< 10 nM	10 to 100 nM	–
CC1(C(=O)N2CC(c3cccc(C(=O)N[C@@H](C(=O)N4CCC(OC5CCN(CC(=O)N6CCN(C(=O)c7cc(Cc8n[nH]c(=O)c9ccccc89)ccc7F)CC6)CC5)CC4)C4CCCCC4)c3F)CCC2(C)C)CC1 (stereo partly drawn) [Compound I-884]	100 to 1000 nM	10 to 100 nM	10 to 100 nM	< 10 nM	10 to 100 nM	–
CCc1cccc(-c2cnc(C(=O)NC34CCC(CN5CCN(CC(=O)N6CCN(C(=O)c7cc(Cc8n[nH]c(=O)c9ccccc89)ccc7F)CC6)CC5)(CC3)OC4)c(NC(=O)OC(C)(C)C)c2)c1 [Compound I-800]	100 to 1000 nM	100 to 1000 nM	100 to 1000 nM	< 10 nM	10 to 100 nM	–
O=C(CN1CCN(CC2CCN(C(=O)c3c(F)cc(-c4cnccn4)cc3F)CC2)CC1)N1CCN(C(=O)c2cc(Cc3n[nH]c(=O)c4ccccc34)ccc2F)CC1 [Compound I-739]	< 10 nM	100 to 1000 nM	100 to 1000 nM	< 10 nM	10 to 100 nM	–
C[C@@H]1CN(CC2CCN(CC(=O)N3CCN(C(=O)c4cc(Cc5n[nH]c(=O)c6ccccc56)ccc4F)CC3)CC2)CCN1C(=O)[C@H](NC(=O)c1cccc([C@@H]2CCCN(C(=O)C(C)(C)C)C2)c1)C1CCCCC1 [Compound I-973]	100 to 1000 nM	100 to 1000 nM	100 to 1000 nM	10 to 100 nM	–	–
O=C(c1cc(Cc2n[nH]c(=O)c3ccccc23)ccc1F)N1CCN(C(=O)C2CC2)CC1 [Olaparib, reference compound]	–	1000 to 10000 nM	1000 to 10000 nM	10 to 100 nM	–	< 10 nM
O=C(CN1CCN(C[C@@H]2C[C@H]3CC[C@@H]2CN3C(=O)c2c(F)cc(-c3ccccc3)cc2F)CC1)N1CCN(C(=O)c2cc(Cc3n[nH]c(=O)c4ccccc34)ccc2F)CC1 [Compound I-774]	10 to 100 nM	10 to 100 nM	10 to 100 nM	< 10 nM	–	–
O=C(CN1CCN(C[C@@H]2C[C@@H]3CC[C@H]2CN3C(=O)c2c(F)cc(-c3ccccc3)cc2F)CC1)N1CCN(C(=O)c2cc(Cc3n[nH]c(=O)c4ccccc34)ccc2F)CC1 [Compound I-777]	10 to 100 nM	10 to 100 nM	10 to 100 nM	< 10 nM	–	–
